Patent US12384771B2, “Pleuromutilin derivative containing thiazole-pyridine benzyl quaternary ammonium salt side chain and preparation method and use thereof” (SHAANXI UNIVERSITY OF SCIENCE AND TECHNOLOGY, priority 2022, dated 2025)
Counter-ions that a name gives are not always drawn.

What was measured:
Assay type in all cases: cell-based
[1] = test system: multidrug-resistant Pseudomonas aeruginosa (MDR-PA) 18-993; test: MIC, clinical drug-resistant bacteria; details: MDR-PA 18-993, read-out: Minimum inhibitory concentration against clinical drug-resistant bacteria
Protocol: (§1) The minimum inhibitory concentration (MIC) of the pleuromutilin derivative containing thiazole-pyridine benzyl quaternary ammonium salt side chain was tested with moxifloxacin as a positive control (purchased from Shanghai Macklin Biochemical Technology Co., Ltd.) using a microbroth dilution method. At the same time, the pleuromutilin derivative containing thiazole-pyridine benzyl quaternary ammonium salt side chain of the invention was compared with the marketed pleuromutilin antibiotics, such as retapamulin (purchased from Nanjing Chemlin Chemical Industry Co., Ltd.), tiamulin (purchased from Shanghai Yuanye Bio-Technology Co., Ltd) and valnemulin (purchased from Shanghai Acmec Biochemical Co., Ltd), in order to screen out pleuromutilin derivatives with better activity.
(§2) Clinical resistant bacteria include multidrug-resistant Pseudomonas aeruginosa (MDR-PA) 18-993, 18-756 and 18-126, multidrug-resistant Klebsiella pneumoniae (MDR-KP) 18-893, 18-754 and 18-1482, methicillin-resistant Staphylococcus aureus (MRSA) 18-171, 18-209 and 18-575, vancomycin-resistant Enterococcus faecalis (VRE) 18-94, 18-80 and 18-507, and carbapenem-resistant Acinetobacter baumannii (CR-AB) 18-184, 18-560 and 18-882, all the clinical drug-resistant strains were from Huashan Hospital, Fudan University.

[2] = test system: methicillin-resistant Staphylococcus aureus (MRSA) 18-575; test: MIC, clinical drug-resistant bacteria; details: MRSA 18-575, read-out: Minimum inhibitory concentration against clinical drug-resistant bacteria
Protocol: as §1, §2

[3] = test system: vancomycin-resistant Enterococcus faecalis (VRE) 18-94; test: MIC, clinical drug-resistant bacteria; details: VRE 18-94; read-out: Minimum inhibitory concentration against clinical drug-resistant bacteria
Protocol: as §1, §2

[4] = test system: methicillin-resistant Staphylococcus aureus (MRSA) 18-209; test: MIC, clinical drug-resistant bacteria; details: MRSA 18-209, read-out: Minimum inhibitory concentration against clinical drug-resistant bacteria
Protocol: as §1, §2

[5] = test system: multidrug-resistant Klebsiella pneumoniae (MDR-KP) 18-893; test: MIC, clinical drug-resistant bacteria; details: MDR-KP 18-893, read-out: Minimum inhibitory concentration against clinical drug-resistant bacteria
Protocol: as §1, §2

[6] = test system: vancomycin-resistant Enterococcus faecalis (VRE) 18-80; test: MIC, clinical drug-resistant bacteria; details: VRE 18-80; read-out: Minimum inhibitory concentration against clinical drug-resistant bacteria
Protocol: as §1, §2

[7] = test system: carbapenem-resistant Acinetobacter baumannii (CR-AB) 18-882; test: MIC, clinical drug-resistant bacteria; details: CR-AB 18-882, read-out: Minimum inhibitory concentration against clinical drug-resistant bacteria
Protocol: as §1, §2

[8] = test system: multidrug-resistant Klebsiella pneumoniae (MDR-KP) 18-754; test: MIC, clinical drug-resistant bacteria; details: MDR-KP 18-754, read-out: Minimum inhibitory concentration against clinical drug-resistant bacteria
Protocol: as §1, §2

[9] = test system: carbapenem-resistant Acinetobacter baumannii (CR-AB) 18-184; test: MIC, clinical drug-resistant bacteria; details: CR-AB 18-184, read-out: Minimum inhibitory concentration against clinical drug-resistant bacteria
Protocol: as §1, §2

[10] = test system: methicillin-resistant Staphylococcus aureus (MRSA) 18-171; test: MIC, clinical drug-resistant bacteria; details: MRSA 18-171, read-out: Minimum inhibitory concentration against clinical drug-resistant bacteria
Protocol: as §1, §2

[11] = test system: multidrug-resistant Klebsiella pneumoniae (MDR-KP) 18-1482; test: MIC, clinical drug-resistant bacteria; details: MDR-KP 18-1482, read-out: Minimum inhibitory concentration against clinical drug-resistant bacteria
Protocol: as §1, §2

[12] = test system: Salmonella ATCC 14028; test: MIC, microbroth dilution, standard strains; details: ATCC14028, ATCC 14028, read-out: Minimum inhibitory concentration
Summary of the method: (§3)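 Compounds were screened by the microbroth dilution technique to obtain MIC values, with moxifloxacin tested in parallel.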

[13] = test system: Staphylococcus aureus ATCC 29213; test: MIC, microbroth dilution, standard strains; details: ATCC29213, ATCC 29213, read-out: Minimum inhibitory concentration
Summary of the method: as §3

[14] = test system: Escherichia coli ATCC 25922; test: MIC, microbroth dilution, standard strains; details: ATCC25922, ATCC 25922, read-out: Minimum inhibitory concentration
Summary of the method: as §3

[15] = test system: Staphylococcus epidermidis ATCC 12228; test: MIC, microbroth dilution, standard strains; details: ATCC12228, ATCC 12228, read-out: Minimum inhibitory concentration
Summary of the method: as §3

[16] = test system: Acinetobacter baumannii ATCC 19606; test: MIC, microbroth dilution, standard strains; details: ATCC19606, ATCC 19606, read-out: Minimum inhibitory concentration
Summary of the method: as §3

[17] = test system: Staphylococcus aureus ATCC 25923; test: MIC, microbroth dilution, standard strains; details: ATCC25923, ATCC 25923, read-out: Minimum inhibitory concentration
Summary of the method: as §3

[18] = test system: Escherichia coli CMCC 44103; test: MIC, microbroth dilution, standard strains; details: CMCC44103, CMCC 44103, read-out: Minimum inhibitory concentration
Summary of the method: as §3

[19] = test system: methicillin-resistant Staphylococcus aureus ATCC 33591; test: MIC, microbroth dilution, standard strains; details: ATCC33591, ATCC 33591, read-out: Minimum inhibitory concentration
Summary of the method: as §3

MIC [1]: 32 µg/mL | MIC [2]: 64 µg/mL | MIC [3]: 64 µg/mL | MIC [4]: 16 µg/mL | MIC [5]: 16 µg/mL | MIC [6]: 8 µg/mL | MIC [7]: 16 µg/mL | MIC [8]: 16 µg/mL | MIC [9]: 32 µg/mL | MIC [10]: 64 µg/mL | MIC [11]: 16 µg/mL | MIC [12]: 2 µg/mL | MIC [13]: 0.125 µg/mL | MIC [14]: 1 µg/mL | MIC [15]: 2 µg/mL | MIC [16]: 2 µg/mL | MIC [17]: 0.5 µg/mL | MIC [18]: 0.5 µg/mL | MIC [19]: 1 µg/mL
Structure (SMILES): C=C[C@]1(C)C[C@@H](OC(=O)CSc2nc(-c3cc[n+](Cc4ccc([N+](=O)[O-])cc4)cc3)cs2)[C@]2(C)[C@H](C)CC[C@]3(CCC(=O)[C@H]32)[C@@H](C)[C@@H]1O [Compound 7, 1-(4-(nitro)benzyl)-4-(2-(8-hydroxy-4,7,9,12-tetramethyl-3-oxo-7-vinyldecahydro-4,9a-propancyclopent[8]cyclen-5-yl)oxy)-2-oxoethyl)thiazol-4-yl)pyridyl bromide salt]
